Assay: Binding affinity against Opioid receptor delta 1 in guinea pig brain homogenates, using [3H]DPDPE as radioligand.

## CC1(C)SSC[C@@H](NC(=O)[C@@H]2NCC[C@@H]2c2ccc(O)cc2)C(=O)N[C@@H](Cc2ccccc2)C(=O)N[C@@H]1C(=O)O
  Ki: 84 nM

## CC1(C)SSC[C@@H](NC(=O)[C@H]2NCC[C@@H]2c2ccc(O)cc2)C(=O)N[C@@H](Cc2ccccc2)C(=O)N[C@@H]1C(=O)O
  Ki: 0.66 nM

Reference: BindingDB's records for doi:10.1021/jm00101a030 (University of Michigan, 1992)
